Test results from US20250098675A1, “A METHOD OF CONTROLLING RESISTANT AND NON-RESISTANT PESTS” (UPL CORPORATION LIMITED, priority 2021, published 2025).
Like-named read-outs stand apart in the source and are kept apart here.

Experiments:
Assay type in all cases: in vivo
[1] = test system: resistant Mahanarva fimbriolata; test: Greenhouse pot trial, drench, mortality of resistant nymphs; conditions: for mortality at 400 g/ha / mortality at 250 g/ha: Mahanarva fimbriolata, soil; for mortality at 400 g/ha: read-out: Mortality (%) of Nymphs-Resistant population % Mortality, 400 g.a.i/ha; for mortality at 250 g/ha: read-out: Mortality (%) of Nymphs-Resistant population % Mortality, 250 g.a.i/ha
Experimental: The sugarcane plants were sown under greenhouse in pots. Artificially, each pot was infested with 10 nymphs in 3rd/4th instar. Infestation was done 24 h before of application for insect acclimatization. The treatments were applied via drenching, after infestation. The assessments were made at 3 and 5 days after infestation in 4 replications.

Mahanarva fimbriolata = test: Field trial, % control of Mahanarva fimbriolata nymphs and adult insects in sugarcane
Experimental: Trials were carried out in field to assess efficacy of flupyrimin against Mahanarva fimbriolata. Evaluation was done to check % control of nymphs and adult insects at intervals of 30 DAA and 60 DAA (for nymphs) and 7, 30 and 60 DAA (for adult insects). The efficacy was compared with standard insecticides thiamethoxam and ethiprole.

[2] = test system: larvae Sphenophorus levis; test: Larvae bioassay, residual contact and ingestion, dipped sugarcane stalks; conditions: for Larvae efficacy control (%): 1DAA
Experimental: The efficacy of flupyrimin was determined against the larvae stage of Sphenophorus levis. Accordingly, the larvae bioassay method was residual contact and ingestion. The sugarcane stalks were dipped in a insecticide solution then placed on a papart towel to dry. The sugarcane stalks were placed in glass tubes, then S. levis first stage and last instar lavae were introduced in each tube separately. The mortality achieved was 100% at 1 DAA. The treatments condidtions and the results are depicted in Table 8 below: […]

adult Sphenophorus levis = test: Control efficacy against adults, plots sprayed
Experimental: The efficacy of flupyrimin was determined against adult and the larvae stage of Sphenophorus levis. To evaluate the efficacy of flupyrimin plots with ten Sphenophorus levis adults were populated. Flupyrimin at a concentration of 500 g/L was used to treat the plots by spraying. Each plot received a 10 cm splitted lengthwise suarcane stem piece as feed and accordingly each plot was subjected to treatment conditions as depicted in the table below.

CC[S+]([O-])c1c(C#N)nn(-c2c(Cl)cc(C(F)(F)F)cc2Cl)c1N (centres unmarked) [Ethiprole, ethiprole]
mortality at 400 g/ha ([1]; 0 DAA 3 DAI): 33%
mortality at 400 g/ha ([1]; 0 DAA 5 DAI): 45%
Adults % Control (Mahanarva fimbriolata; 400 g a.i./ha, 7 DAA): 100%
Adults % Control (Mahanarva fimbriolata; 400 g a.i./ha, 30 DAA): 100%
Nymphs % Control (Mahanarva fimbriolata; 400 g a.i./ha, 30 DAA): 95%
Adults % Control (Mahanarva fimbriolata; 400 g a.i./ha, 60 DAA): 100%
Nymphs % Control (Mahanarva fimbriolata; 400 g a.i./ha, 60 DAA): 100%

O=C(N=c1ccccn1Cc1ccc(Cl)nc1)C(F)(F)F [Flupyrimin, flupyrimin]
Mortality (%) of Nymphs-Resistant population % Mortality ([1]; 150 g.a.i/ha, 0 DAA 3 DAI): 85%
Mortality (%) of Nymphs-Resistant population % Mortality ([1]; 150 g.a.i/ha, 0 DAA 5 DAI): 98%
Mortality (%) of Nymphs-Resistant population % Mortality ([1]; 200 g.a.i/ha, 0 DAA 3 DAI): 97%
Mortality (%) of Nymphs-Resistant population % Mortality ([1]; 200 g.a.i/ha, 0 DAA 5 DAI): 100%
Mortality (%) of Nymphs-Resistant population % Mortality ([1]; 250 g.a.i/ha, 0 DAA 3 DAI): 98%
Mortality (%) of Nymphs-Resistant population % Mortality ([1]; 250 g.a.i/ha, 0 DAA 5 DAI): 98%
Mortality (%) of Nymphs-Resistant population % Mortality ([1]; 300 g.a.i/ha, 0 DAA 3 DAI): 97%
Mortality (%) of Nymphs-Resistant population % Mortality ([1]; 300 g.a.i/ha, 0 DAA 5 DAI): 100%
control of resistant nymphs (in words) ([1]; summary of the table, no dose stated): effective in completely controlling resistant nymphs
Adults % Control (Mahanarva fimbriolata; 150 g a.i./ha, 7 DAA): 80%
Adults % Control (Mahanarva fimbriolata; 150 g a.i./ha, 30 DAA): 100%
Nymphs % Control (Mahanarva fimbriolata; 150 g a.i./ha, 30 DAA): 62%
Adults % Control (Mahanarva fimbriolata; 150 g a.i./ha, 60 DAA): 75%
Nymphs % Control (Mahanarva fimbriolata; 150 g a.i./ha, 60 DAA): 95%
Adults % Control (Mahanarva fimbriolata; 200 g a.i./ha, 7 DAA): 80%
Adults % Control (Mahanarva fimbriolata; 200 g a.i./ha, 30 DAA): 50%
Nymphs % Control (Mahanarva fimbriolata; 200 g a.i./ha, 30 DAA): 97%
Adults % Control (Mahanarva fimbriolata; 200 g a.i./ha, 60 DAA): 100%
Nymphs % Control (Mahanarva fimbriolata; 200 g a.i./ha, 60 DAA): 95%
Adults % Control (Mahanarva fimbriolata; 250 g a.i./ha, 7 DAA): 60%
Adults % Control (Mahanarva fimbriolata; 250 g a.i./ha, 30 DAA): 100%
Nymphs % Control (Mahanarva fimbriolata; 250 g a.i./ha, 30 DAA): 92%
Adults % Control (Mahanarva fimbriolata; 250 g a.i./ha, 60 DAA): 50%
Nymphs % Control (Mahanarva fimbriolata; 250 g a.i./ha, 60 DAA): 100%
Nymphs % Control (Mahanarva fimbriolata; 250 g a.i./ha, 60 DAA, listed as flupyrimin): complete control
Adults % Control (Mahanarva fimbriolata; 300 g a.i./ha, 7 DAA): 40%
Adults % Control (Mahanarva fimbriolata; 300 g a.i./ha, 30 DAA): 25%
Nymphs % Control (Mahanarva fimbriolata; 300 g a.i./ha, 30 DAA): 81%
Adults % Control (Mahanarva fimbriolata; 300 g a.i./ha, 60 DAA): 100%
Nymphs % Control (Mahanarva fimbriolata; 300 g a.i./ha, 60 DAA): 95%
Larvae efficacy control (%) ([2]; 150 g of a.i/ha (0.30 kg-l/ha)): 100%
Larvae efficacy control (%) ([2]; 250 g of a.i/ha (0.50 kg-l/ha)): 100%
Larvae efficacy control (%) ([2]; 300 g of a.i/ha (0.60 kg-l/ha)): 100%
Larvae efficacy control (%) ([2]; 500 g of a.i/ha (1.00 kg-l/ha)): 100%
mortality of S. levis larvae ([2]; first stage and last instar larvae, 1 DAA, no dose stated): 100%
control of S. levis adults (in words) (adult Sphenophorus levis; 9 DAA, no dose stated): almost complete control
Adults efficacy control (%) (adult Sphenophorus levis; 150 g of a.i/ha (0.30 kg-l/ha), 1DAA): 46.3%
Adults efficacy control (%) (adult Sphenophorus levis; 150 g of a.i/ha (0.30 kg-l/ha), second value column, time not printed): 75.1%
Adults efficacy control (%) (adult Sphenophorus levis; 150 g of a.i/ha (0.30 kg-l/ha), third value column, time not printed): 97.3%
Adults efficacy control (%) (adult Sphenophorus levis; 250 g of a.i/ha (0.50 kg-l/ha), 1DAA): 61.0%
Adults efficacy control (%) (adult Sphenophorus levis; 250 g of a.i/ha (0.50 kg-l/ha), second value column, time not printed): 80.9%
Adults efficacy control (%) (adult Sphenophorus levis; 250 g of a.i/ha (0.50 kg-l/ha), third value column, time not printed): 100%
Adults efficacy control (%) (adult Sphenophorus levis; 300 g of a.i/ha (0.60 kg-l/ha), 1DAA): 59.5%
Adults efficacy control (%) (adult Sphenophorus levis; 300 g of a.i/ha (0.60 kg-l/ha), second value column, time not printed): 79.5%
Adults efficacy control (%) (adult Sphenophorus levis; 300 g of a.i/ha (0.60 kg-l/ha), third value column, time not printed): 99.1%
Adults efficacy control (%) (adult Sphenophorus levis; 500 g of a.i/ha (1.00 kg-l/ha), 1DAA): 56.9%
Adults efficacy control (%) (adult Sphenophorus levis; 500 g of a.i/ha (1.00 kg-l/ha), second value column, time not printed): 79.9%
Adults efficacy control (%) (adult Sphenophorus levis; 500 g of a.i/ha (1.00 kg-l/ha), third value column, time not printed): 97.3%

CN1COCN(Cc2cnc(Cl)s2)/C1=N\[N+](=O)[O-] [Thiamethoxam, thiamethoxam]
mortality at 250 g/ha ([1]; 0 DAA 3 DAI): 23%
mortality at 250 g/ha ([1]; 0 DAA 5 DAI): 25%
Adults % Control (Mahanarva fimbriolata; 250 g a.i./ha, 7 DAA): 60%
Adults % Control (Mahanarva fimbriolata; 250 g a.i./ha, 30 DAA): 50%
Nymphs % Control (Mahanarva fimbriolata; 250 g a.i./ha, 30 DAA): 86%
Adults % Control (Mahanarva fimbriolata; 250 g a.i./ha, 60 DAA): 75%
Nymphs % Control (Mahanarva fimbriolata; 250 g a.i./ha, 60 DAA): 90%
